In PubChem BioAssay AID179 (DTP/NCI, 2004):
Active and inactive are the calls of the source.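 The calls were made as follows: active = compounds giving half or more protection of infected cells from virus-caused growth loss, again on retest; inactive = the rest.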

Tested on: CEM cells HIV-1 protection, formazan growth assay
Assay: NCI AIDS Antiviral Assay
Details: for IC50: measured here: growth of uninfected CEM cells
Method in brief: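 Human CEM cells, uninfected and HIV-1-infected, received five drug concentrations, and growth was read by soluble formazan assay. Compounds giving at least 50% protection were retested; reproducible 100% protection defined confirmed active.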

Row | SMILES | outcome | EC50 | IC50
1 | O=C(Nn1c(-c2ccccc2)nc2ccccc2c1=O)c1ccc(CS)cc1 | inactive |  | 
2 | O=C(COC(=O)c1cccc2c(=O)c3ccccc3[nH]c12)Nc1ccccc1 | inactive |  | 
3 | NNC(=O)CC(=O)Nc1ccc(Cl)cc1 |  | > 200 µM | 112 µM
4 | N#CC(C#N)=Cn1c(=S)[nH]c2ccccc21 |  | > 200 µM | > 200 µM
5 | COCCNC(=O)C1C(=O)C(=O)N(CCOC)C1=O (configuration not stated) | inactive |  | 
6 | Cc1ccc(-c2nc3n(c2/C=N\N=C(N)N)CCS3)cc1 |  | > 200 µM | 29.5 µM
7 | CCC[CH2][Sn]1([CH2]CCC)[S]CC[N]1S(=O)(=O)c1ccc(C)cc1 |  | > 200 µM | 0.0776 µM
8 | O=[N+]([O-])c1sc2ccc(Cl)cc2c1Nc1ccc(Cl)cc1 |  | > 200 µM | > 200 µM
9 | CC(=O)C=O | inactive |  | 
10 | COC(=O)c1cc2c3c(c1)Oc1cc(C(=O)OC)cc4c1C3c1c(cc(C(=O)OC)cc1O4)O2 |  | > 200 µM | 55 µM
11 | Cc1ccc(NC(=O)c2cc3ccccc3c(N=Nc3cc(S(=O)(=O)O)ccc3O)c2O)c(C)c1 |  | 0.832 µM | 4.27 µM
12 | Cc1ccc(S(=O)(=O)N2CCSCCSCCSCCSCC2)cc1 |  | > 12 µM | > 12 µM
13 | COc1cc(CO)c(-c2c(CO)cc(OC)c(OC)c2OC)c(OC)c1OC |  | > 631 µM | > 631 µM
14 | Cc1ccc(/C=C/C(=N/NC(=O)N/N=C(/C=C/c2ccc(C)cc2)C(C)C)C(C)C)cc1 |  | > 100 µM | > 100 µM
15 | COc1cccc2ccc(C(=O)c3ccccc3)nc12 |  | > 97.7 µM | > 97.7 µM
16 | O=C(CCc1cc(O)cc(O)c1)NCCc1cc(OCc2ccccc2)cc(OCc2ccccc2)c1 | inactive |  | 
17 | C/C=C1\CN2CCc3c([nH]c4ccccc34)C2CC1C(=O)OC (configuration not stated) |  | > 219 µM | > 219 µM
18 | CC(=O)c1cc2sc3ccccc3c2[nH]1 |  | > 200 µM | > 200 µM
19 | COC(=O)C1(C)CCCC2(C)C1CCC1(O)C(O)C(C(C)C)=CCC21 (configuration not stated) |  | > 200 µM | 56.2 µM
20 | O=C(Nc1nn[nH]n1)c1nc(-c2ccccc2)cc(=O)[nH]1 |  | > 200 µM | > 200 µM
21 | CC1=C(C#N)C2C(=C(C)N1)C(N)=Nc1ccccc12 (configuration not stated) |  | > 200 µM | 13.5 µM
22 | O=c1ccn([C@@H]2C[C@@H]2CO)c(=O)[nH]1 | inactive |  | 

Row | SMILES | outcome | EC50 | IC50
23 | CC(C)(C)C1CCC2c3c([nH]c4ccccc34)C3C(=O)N(c4ccccc4[N+](=O)[O-])C(=O)C3C2C1 (configuration not stated) |  | > 200 µM | 36.3 µM
24 | Cc1cn(C2CC(CCN(O)CC3OC(n4cc(C)c(=O)[nH]c4=O)CC3O[Si](C)(C)C(C)(C)C)C(CO[Si](C)(C)C(C)(C)C)O2)c(=O)[nH]c1=O (configuration not stated) |  | > 200 µM | 11.5 µM
25 | O=C1/C(=C/c2ccco2)NC(=S)N1CN1CCOCC1 |  | > 200 µM | 91.2 µM
26 | Cc1cc(S(=O)(=O)NC2=NCCN2Cc2ccccc2)c(S)cc1Cl |  | > 200 µM | 58.9 µM
27 | C=C(C)CCNCC/C=C\[Si](C)(C)C |  | > 1170 µM | > 1170 µM
28 | NC(C(=O)O)C1=CCCCCC1 (configuration not stated) |  | > 200 µM | > 200 µM
29 | O=C1c2ccccc2C(=CC=C2c3ccccc3Sc3ccccc32)c2ccccc21 |  | > 9.12 µM | > 9.12 µM
30 | CCOc1cc(N=Nc2cc(Cl)c(S(=O)(=O)O)cc2Cl)c2cc(S(=O)(=O)O)ccc2c1N=Nc1c(S(=O)(=O)O)cc2cc(NC(=O)c3ccc(N)cc3)ccc2c1O | active |  | 
31 | CC1=C(C#N)C(=O)N(/N=C/c2ccc(Cl)cc2)C(=O)/C1=c1\o/c(=C2/C(=O)N(/N=C/c3ccc(Cl)cc3)C(=O)C(C#N)=C2C)c2nccnc12 |  | > 200 µM | 110 µM
32 | OCC1CC(F)C(n2cnc3c(Br)ncnc32)O1 (configuration not stated) |  | > 158 µM | 27.5 µM
33 | COc1cc(-c2coc3cc(O)ccc3c2=O)c(O)c(OC)c1OC |  | > 200 µM | 72.4 µM
34 | COCCOCCOC(=O)C(CO)(CC(CO)(C(C)=O)C(=O)OCCOCCOC)C(C)=O (configuration not stated) |  | > 200 µM | > 200 µM
35 | O=C(CCCN1CCC2(CC1)CC(c1ccccc1)OC2=O)c1ccc(F)cc1 (configuration not stated) |  | > 200 µM | 89.1 µM
36 | C=C1C(=O)OC2CC(C)C(C(O)CC(C)O)=CCC12 (configuration not stated) |  | > 447 µM | 8.32 µM
37 | COc1ccc(N=C2SC(=N/N=c3\sc4ccccc4n3C)SC2=Nc2ccc(OC)cc2)cc1 |  | > 200 µM | 63.1 µM
38 | CCOC(=O)/C=C1/Nc2cc(F)c(F)cc2NC1=O |  | > 200 µM | > 200 µM
39 | Cc1cc(Cl)ccc1N=NC(=O)NNc1ccc(Cl)cc1C |  | > 200 µM | 52.5 µM
40 | Cc1ccc2ccc3ccc(C)nc3c2n1 |  | > 12 µM | 0.24 µM
41 | N=C(N)/N=C(/C=C/c1ccccc1)CC1OC(=O)c2ccccc21 (configuration not stated) |  | > 42.7 µM | > 42.7 µM
42 | CC1Cn2c(nc3ccccc32)NC1=O (configuration not stated) |  | > 200 µM | > 200 µM
43 | COC(=O)c1ccccc1NC(=O)C(=O)NNC(=O)c1ccncc1 |  | > 275 µM | > 275 µM
44 | N#CC1=C(N)N(/N=C/c2ccccc2)C(c2ccccc2)C1(C#N)C#N (configuration not stated) |  | > 200 µM | 3.89 µM

Row | SMILES | outcome | EC50 | IC50
45 | COc1ccccc1N=C(N)N/N=C/c1c[nH]c2ccccc12 | inactive |  | 
46 | S=c1nc[nH]c2c1ccc1[nH]cnc12 |  | > 18.6 µM | > 18.6 µM
47 | Cc1nc2c(=O)[nH]c(=O)nc-2n(CCO)c1C |  | > 100 µM | 40.7 µM
48 | Cc1cc(C)nc(NC(=S)Nc2ccc([N+](=O)[O-])cc2)c1 |  | > 200 µM | > 200 µM
49 | O=c1[nH]c2ccccc2c(=O)c2ccccc12 |  | > 32.4 µM | > 32.4 µM
50 | c1cc2sc1CSCCSCCSC2 |  | > 38 µM | > 38 µM
51 | OCC1OC2c3ccccc3COC2C1OCc1ccccc1 (configuration not stated) | inactive |  | 
52 | CO[C@H]1ON=C(c2c(C)cc(C)cc2C)[C@@H]1C1(c2ccccc2)ON=C(c2c(C)cc(C)cc2C)O1 (some centres not stated) |  | > 200 µM | 
53 | C/C(=N/OC(=O)N(C)C)c1cccs1 |  | > 200 µM | > 200 µM
54 | Cc1cccc(C2SCc3nc4ccccc4n32)c1 (configuration not stated) | inactive |  | 
55 | c1ccc(OP2(Oc3ccccc3)=NP(Oc3ccccc3)(Oc3ccccc3)=NP(Oc3ccccc3)(Oc3ccccc3)=NP(Oc3ccccc3)(Oc3ccccc3)=N2)cc1 |  | > 100 µM | > 100 µM
56 | O=S1(=O)C[C@H](O)[C@H](O)CS1 |  | 8.32 µM | 75.9 µM
57 | Nc1nc2c(c(=O)[nH]1)N(C=O)C(CNc1ccc(C(=O)N[C@@H](CCC(=O)O)C(=O)O)cc1)CN2 (some centres not stated) |  | > 200 µM | > 200 µM
58 | Cn1c2ccccc2n2c3ncccc3c(=O)c(C#N)c12 |  | > 50.1 µM | 1.26 µM
59 | COC1(O)C(=O)c2ccccc2OC1(OC)c1ccc(Cl)cc1 (configuration not stated) |  | > 200 µM | 4.57 µM
60 | CC(=O)N1N=C(c2ccc3ccccc3c2O)CC1C(=O)c1ccco1 (configuration not stated) |  | > 200 µM | 23.4 µM
61 | CCOc1cnn(-c2ccccc2)c(=O)c1Cl |  | > 1000 µM | 437 µM
62 | COc1cc2c(cc1OC)[C@H](C(=O)O)[C@@H](c1ccc(OC(C)C)c(OC)c1)N(C)C2=O |  | > 200 µM | > 200 µM
63 | O=C(c1ccccc1)N1CN(C(=O)c2ccccc2)CN(C(=O)c2ccccc2)C1 |  | > 200 µM | 30.2 µM
64 | O=C(Cn1c2c(c3ccccc31)CCCC2)NC1CCCCC1 |  | > 200 µM | > 200 µM
65 | CC(=O)OC1COC(N2c3ccccc3[C@@H]3CCc4c([nH]c5ccccc45)[C@@H]32)C(OC(C)=O)C1OC(C)=O (mixture of isomers) |  | > 155 µM | 19.5 µM
66 | O=C1NC(=O)C2C1C1C=C3c4ccccc4N(c4ccccc4)C32[C@H]2C(=O)NC(=O)[C@@H]12 (some centres not stated) |  | > 316 µM | 112 µM

Row | SMILES | outcome | EC50 | IC50
67 | O=C1SC(c2ccccc2)(c2ccccc2)c2cscc21 |  | > 61.7 µM | > 61.7 µM
68 | C/C=C/CC(C)C(O)C1C(=O)NC(CC)C(=O)N(C)CC(=O)N(C)C(CC(C)C)C(=O)NC(C(C)C)C(=O)N(C)C(CC(C)C)C(=O)NC(C)C(=O)NC(C)C(=O)N(C)C(CC(C)C)C(=O)N(C)C(CC(C)C)C(=O)N(C)C(C(C)C)C(=O)N1C (configuration not stated) |  | 3.39 µM | 8.13 µM
69 | Cc1cc(N(CCC#N)CCC#N)ccc1/C(N=Nc1ccccc1)=N\NC(=O)c1cc(Cl)ccc1O |  | > 200 µM | 28.8 µM
70 | O=C(Nc1cc2c(oc1=O)CCC2)c1cnccn1 |  | > 100 µM | > 100 µM
71 | CCCCCCCCCC1CC(=O)c2c(O)cccc2O1 (configuration not stated) |  | > 18.2 µM | > 18.2 µM
72 | COc1ccc(Nc2nc3c(N)cc(C(F)(F)F)cc3nc2-c2ccccc2)cc1 |  | > 12.6 µM | > 12.6 µM
73 | COC(=O)C1(C(=O)OC)C/C(C)=C(/C)SCCCS1 |  | > 200 µM | > 200 µM
74 | COc1ccc(Nc2ccc3ccccc3c2-c2c(O)ccc3ccccc23)cc1 |  | > 200 µM | 10.5 µM
75 | O=c1[nH]cnc2c1CN(c1ccccc1)C2 |  | > 234 µM | > 234 µM
76 | Cc1cc(O)c(C(C)(C)C)cc1Sc1cc(C(C)(C)C)c(O)cc1C |  | > 200 µM | 6.46 µM
77 | O=C(/C=C(\O)C(=O)O)/C=C(\O)c1ccc(Cl)cc1 |  | > 69.2 µM | > 69.2 µM
78 | CCOC(=O)C1/C(=N/N)CN2CCc3c([nH]c4ccccc34)C12C(=O)OCC (configuration not stated) |  | > 158 µM | 145 µM
79 | O=C(O)CN1C(=O)c2ccc(NC(=O)C(=O)O)cc2S1(=O)=O |  | > 200 µM | > 200 µM
80 | Cc1ccccc1C1=[N+]([O-])c2ccc(Cl)cc2C1=O | inactive |  | 
81 | CN(C)C(=NCc1ccccc1)NC#N |  | > 1230 µM | > 1230 µM
82 | CCOC(=O)CC1(O)C(=O)N(Cc2ccccc2)c2ccccc21 (configuration not stated) |  | > 200 µM | > 200 µM
83 | C/C(=N\NC(=O)CC(=O)N(C(=O)c1ccccc1Cl)c1ccc(C)cc1)c1ccc(Cl)cc1 |  | > 14.1 µM | > 14.1 µM
84 | CCN(CC)CCCC(C)Nc1cc(-c2ccccc2)nc2cc(Cl)ccc12 (configuration not stated) |  | > 427 µM | 2.45 µM
85 | Cc1ccc(C)c(COCCOCn2cc(Br)c(N)nc2=O)c1 |  | > 200 µM | > 200 µM
86 | O=C(NN1C(=O)C(Cl)C1c1ccc(O)cc1)c1ccccc1O (configuration not stated) |  | > 21.9 µM | 10.2 µM
87 | Cn1c(=O)c2c([nH]c(=O)n2C)n(C)c1=O |  | > 200 µM | > 200 µM
